Measurements: ChEMBL document CHEMBL5724914, “Linking interpersonal differences in gut microbiota composition and drug biotransformation activity” (2024)

Legend:
[1] = (§1) The drug is tested on Z-030 corresponding to mouse gut metagenome with ENA study accession number: PRJEB37062 and ENA sample accession number: ERS12561829 for biotransformation under anaerobic condition. The drug concentrations were measured over 9 timepoints collected between 0 and 24 hours of incubation by liquid-chromatography-coupled mass spectrometry (LC–MS); settings: 2 µM
[2] = as §1, with “Z-028” for “Z-030”, “ERS12561827” for “ERS12561829”; settings: 2 µM
[3] = as §1, with “Z-022” for “Z-030”, “ERS12561821” for “ERS12561829”; settings: 2 µM
[4] = as §1, with “Z-017” for “Z-030”, “ERS12561816” for “ERS12561829”; settings: 2 µM
[5] = as §1, with “Z-013” for “Z-030”, “rabbit” for “mouse”, “ERS12561813” for “ERS12561829”; settings: 2 µM
[6] = as §1, with “Z-010” for “Z-030”, “to” for “to mouse gut”, “ERS12561810” for “ERS12561829”; settings: 2 µM
[7] = as §1, with “Z-009” for “Z-030”, “pig” for “mouse”, “ERS12561809” for “ERS12561829”; settings: 2 µM
[8] = as §1, with “Z-005” for “Z-030”, “to” for “to mouse gut”, “ERS12561805” for “ERS12561829”; settings: 2 µM
[9] = as §1, with “Z-002” for “Z-030”, “rabbit” for “mouse”, “ERS12561802” for “ERS12561829”; settings: 2 µM
[10] = as §1, with “WLS-240” for “Z-030”, “human” for “mouse”, “ERS12561773” for “ERS12561829”; settings: 2 µM
[11] = as §1, with “WLS-098” for “Z-030”, “human” for “mouse”, “ERS12561754” for “ERS12561829”; settings: 2 µM
[12] = human gut metagenome, 24 h, 2 µM
[13] = human gut metagenome, 24 h, 2 µM; remark: listed apart in the source
[14] = human gut metagenome, 24 h, 2 µM; remark: listed apart in the source
[15] = human gut metagenome, 24 h, 2 µM; remark: listed apart in the source
[16] = human gut metagenome, 24 h, 2 µM; remark: listed apart in the source
[17] = human gut metagenome, 24 h, 2 µM; remark: listed apart in the source
[18] = human gut metagenome, 24 h, 2 µM; remark: listed apart in the source
[19] = human gut metagenome, 24 h, 2 µM; remark: listed apart in the source
[20] = human gut metagenome, 24 h, 2 µM; remark: listed apart in the source
Note: call rule not given here.

Row | Bacterial Biotransformation [1] | Bacterial Biotransformation [2] | Bacterial Biotransformation [3] | Bacterial Biotransformation [4] | Bacterial Biotransformation [5] | Bacterial Biotransformation [6] | Bacterial Biotransformation [7] | Bacterial Biotransformation [8] | Bacterial Biotransformation [9] | Bacterial Biotransformation [10] | Bacterial Biotransformation [11] | Bacterial Biotransformation [12] | Bacterial Biotransformation [13] | Bacterial Biotransformation [14] | Bacterial Biotransformation [15] | Bacterial Biotransformation [16] | Bacterial Biotransformation [17] | Bacterial Biotransformation [18] | Bacterial Biotransformation [19] | Bacterial Biotransformation [20] | Compound
1 | Compound metabolized | Compound metabolized | Compound metabolized | Compound NOT metabolized | Compound metabolized | Compound metabolized | Compound metabolized | Compound metabolized | Compound metabolized | Compound metabolized | Compound metabolized | Compound metabolized | Compound metabolized | Compound metabolized | Compound metabolized | Compound metabolized | Compound metabolized | Compound metabolized | Compound metabolized | Compound metabolized | CC(C(=O)O)c1ccc2c(c1)Cc1cccnc1O2 (stereo not given) [PRANOPROFEN]
2 | Compound NOT metabolized | Compound NOT metabolized | Compound metabolized | Compound NOT metabolized | Compound NOT metabolized | Compound NOT metabolized | Compound NOT metabolized | Compound NOT metabolized | Compound metabolized | Compound metabolized | Compound metabolized | Compound NOT metabolized | Compound NOT metabolized | Compound NOT metabolized | Compound NOT metabolized | Compound metabolized | Compound NOT metabolized | Compound NOT metabolized | Compound metabolized | Compound metabolized | CCc1nc(N)nc(N)c1-c1ccc(Cl)cc1 [PYRIMETHAMINE]
3 | Compound NOT metabolized | Compound NOT metabolized | Compound metabolized | Compound NOT metabolized | Compound NOT metabolized | Compound NOT metabolized | Compound NOT metabolized | Compound NOT metabolized | Compound metabolized | Compound NOT metabolized | Compound NOT metabolized | Compound NOT metabolized | Compound NOT metabolized | Compound NOT metabolized | Compound NOT metabolized | Compound NOT metabolized | Compound NOT metabolized | Compound NOT metabolized | Compound NOT metabolized | Compound NOT metabolized | COc1ccccc1OCC(O)CN1CCN(CC(=O)Nc2c(C)cccc2C)CC1 (stereo not given) [RANOLAZINE]
4 | Compound NOT metabolized | Compound NOT metabolized | Compound NOT metabolized | Compound NOT metabolized | Compound NOT metabolized | Compound NOT metabolized | Compound NOT metabolized | Compound NOT metabolized | Compound NOT metabolized | Compound NOT metabolized | Compound NOT metabolized | Compound NOT metabolized | Compound NOT metabolized | Compound NOT metabolized | Compound NOT metabolized | Compound NOT metabolized | Compound NOT metabolized | Compound NOT metabolized | Compound NOT metabolized | Compound NOT metabolized | CN(C)CCc1c[nH]c2ccc(Cn3cncn3)cc12.O=C(O)c1ccccc1 [RIZATRIPTAN BENZOATE]

The remaining lines, values behind:

Row | Compound | Bacterial Biotransformation [1] | Bacterial Biotransformation [2] | Bacterial Biotransformation [3] | Bacterial Biotransformation [4] | Bacterial Biotransformation [5] | Bacterial Biotransformation [6] | Bacterial Biotransformation [7] | Bacterial Biotransformation [8] | Bacterial Biotransformation [9] | Bacterial Biotransformation [10] | Bacterial Biotransformation [11] | Bacterial Biotransformation [12] | Bacterial Biotransformation [13] | Bacterial Biotransformation [14] | Bacterial Biotransformation [15] | Bacterial Biotransformation [16] | Bacterial Biotransformation [17] | Bacterial Biotransformation [18] | Bacterial Biotransformation [19] | Bacterial Biotransformation [20]
5 | CC(C)(C)NC[C@H](O)COc1ccccc1C1CCCC1.CC(C)(C)NC[C@H](O)COc1ccccc1C1CCCC1.O=S(=O)(O)O [PENBUTOLOL SULFATE] | Compound NOT metabolized | Compound NOT metabolized | Compound metabolized | Compound NOT metabolized | Compound NOT metabolized | Compound metabolized | Compound metabolized | Compound metabolized | Compound metabolized | Compound metabolized | Compound metabolized | Compound metabolized | Compound metabolized | Compound metabolized | Compound metabolized | Compound metabolized | Compound metabolized | Compound metabolized | Compound metabolized | Compound metabolized
6 | CCOc1ccc(NC(C)=O)cc1 [PHENACETIN] | Compound NOT metabolized | Compound NOT metabolized | Compound NOT metabolized | Compound NOT metabolized | Compound NOT metabolized | Compound NOT metabolized | Compound NOT metabolized | Compound NOT metabolized | Compound NOT metabolized | Compound NOT metabolized | Compound NOT metabolized | Compound NOT metabolized | Compound NOT metabolized | Compound NOT metabolized | Compound NOT metabolized | Compound NOT metabolized | Compound NOT metabolized | Compound NOT metabolized | Compound NOT metabolized | Compound NOT metabolized
7 | Nc1ccc(/N=N/c2ccccc2)c(N)n1 [PHENAZOPYRIDINE] | Compound metabolized | Compound metabolized | Compound metabolized | Compound metabolized | Compound metabolized | Compound metabolized | Compound metabolized | Compound metabolized | Compound metabolized | Compound metabolized | Compound metabolized | Compound metabolized | Compound metabolized | Compound metabolized | Compound metabolized | Compound metabolized | Compound metabolized | Compound metabolized | Compound metabolized | Compound metabolized
